# Source: patent publication US12616751B2, “Photosensitizing antibody-fluorophore conjugates” (The USA, as represented by the Secretary, Department of …, priority 2010, dated 2026)
# Legend:
# [1] = IR700 at absorption maximum 689 nm; Photofrin 630 nm; Foscan 652 nm; NPe6 654 nm; cited from earlier work
# [2] = Extinction coefficient of photosensitizers; assay type: physicochemical
# From the text: Currently commercially available from LI-COR (Lincoln, Nebr.). IR700 has several favorable chemical properties. Amino-reactive IR700 is a relatively hydrophilic dye and can be covalently conjugated with an antibody using the NHS ester of IR700. IR700 also has more than 5-fold higher extinction coefficient (2.1×10^5 M^−1cm^−1 at the absorption maximum of 689 nm), than conventional photosensitizers such as the hematoporphyrin derivative Photofrin® (1.2×10^3 M^−1cm^−1 at 630 nm), meta-tetrahydroxyphenylchlorin; Foscan® (2.2×10^4 M^−1cm^−1 at 652 nm), and mono-L-aspartylchlorin e6; NPe6/Laserphyrin® (4.0×10^4 M^−1cm^−1 at 654 nm).
# 3T3/HER2+ cells = experiment: Photoimmunotherapy (PIT) phototoxicity, LIVE/DEAD assay; assay type: cell-based; conditions: 200 nM, equivalent IR700 concentration of conjugate
# Description: Cells were grown in RPMI 1640 supplemented with 10% fetal bovine serum and 1% penicillin/streptomycin in tissue culture flasks in a humidified incubator at 37° C. in an atmosphere of 95% air and 5% carbon dioxide.
# Culture medium was replaced with phenol red-free medium after washing with phosphate buffered saline (PBS).
# [3] = Excretion of free and catabolized IR700; conditions: in vivo
# A431 tumors = experiment: In vivo nanodrug-delivery after PIT (super EPR); parameters: species or system mice
# Description: In vivo nanodrug-delivery after photoimmunotherapy. Six-week-old to 8-week-old female homozygote athymic nude mice were purchased from Charles River (National Cancer Institute Frederick). During treatment, mice were anesthetized with isoflurane. Two million A431 cells were injected subcutaneously in the right and left dorsums of each mouse. Five days after cell injection, 100 μg of Pan-IR700 was administered intravenously, and 1 day later, either side of tumor was irradiated with NIR light from a red-light-emitting diode at wavelengths of 670-690 nm and a power density of 10-100 J cm^−2, as measured with an optical power meter (PM 100 (Thorlabs)). One hour after PIT, Pan-IR800 (100 μg), Qtracker 800 Non-Targeted Quantum dots (32.5 pmol), or DaunoXome (30 mg kg^−1) were injected intravenously, and the in vivo fluorescence images were obtained with a Pearl Imager (LI-COR Biosciences) and a Maestro Imager (CRi). For MR imaging, SPIO (Feridex) was administered intravenously 1 h post-PIT and MR images were obtained. The tumors were excised, and frozen or paraffin-embedded for histological study and fluorescence microscopy study after ex vivo imaging.
# In vivo fluorescence imaging. Five days after injection of two million A431 or 3T3-HER2 cells in right and left dorsums, and seven days after MDA-MB-468 cells injection in mammary pads, tumor volumes of approximately 75 mm^3 were selected. Signals of IR700 and IR800 was detected with a fluorescence camera (Pearl Imager, LI-COR Biosciences) using the 700 and 800 nm fluorescence channel Qdot800 was detected with Maestro in vivo Imaging System (CRi) using a band-pass filter, which ranges between 575 to 605 nm (excitation) and a long-pass NIR filter over 800 nm (emission). Fluorescence images of daunorubicin were also obtained with Maestro using a band-pass filter from 503 to 555 nm (excitation) and a long-pass green filter over 580 nm (emission). The tunable emission filter was automatically stepped in 10 nm increments from 650 to 950 nm and from 500 to 800 nm for the NIR and green filter sets at constant exposure. The spectral fluorescence images consist of autofluorescence spectra and the spectra from Qdot800 and daunorubicin, which were then unmixed, based on their spectral patterns using commercial software (Maestro software; CRi). Mice were sacrificed with carbon dioxide immediately after in vivo imaging. The tumors were excised, and frozen or paraffin-embedded for histological study and fluorescence microscopy study after ex vivo imaging.
# Fluorescence microscopy. Ten-μm-thick frozen or paraffin sections were prepared and fluorescence in tumor sections was detected using an Olympus BX81 microscope (Olympus America, Inc., Melville, N.Y.) equipped with the following filters: excitation wavelength 590 to 650 nm, and 480 to 550 nm, emission wavelength 662.5 to 747.5 nm, 765 to 855 nm, and 590 nm long pass for IR700, Qdot800, and daunorubicin, respectively. Transmitted light differential interference contrast images were also acquired. H&E staining and Prussian Blue staining were performed according to standard protocol.
# Optimal timing of second shot. To determine the optimal timing of second shot, Pan-IR800 (100 μg) was administered intravenously into A431 bearing mice at 1, 6, and 24 h after PIT treatment, and the dynamic imaging for 1 h was carried out with Pearl Imager according to the protocol described above.
# MDA-MB-468 tumors = experiment: In vivo delivery of Pan-IR800 after Pan-IR700 PIT; parameters: species or system mice; conditions: 50 J/cm2 to right side tumor; agent 1 h after PIT
# From the text: In vivo fluorescence imaging. Five days after injection of two million A431 or 3T3-HER2 cells in right and left dorsums, and seven days after MDA-MB-468 cells injection in mammary pads, tumor volumes of approximately 75 mm^3 were selected. Signals of IR700 and IR800 was detected with a fluorescence camera (Pearl Imager, LI-COR Biosciences) using the 700 and 800 nm fluorescence channel Qdot800 was detected with Maestro in vivo Imaging System (CRi) using a band-pass filter, which ranges between 575 to 605 nm (excitation) and a long-pass NIR filter over 800 nm (emission). Fluorescence images of daunorubicin were also obtained with Maestro using a band-pass filter from 503 to 555 nm (excitation) and a long-pass green filter over 580 nm (emission). The tunable emission filter was automatically stepped in 10 nm increments from 650 to 950 nm and from 500 to 800 nm for the NIR and green filter sets at constant exposure. The spectral fluorescence images consist of autofluorescence spectra and the spectra from Qdot800 and daunorubicin, which were then unmixed, based on their spectral patterns using commercial software (Maestro software; CRi). Mice were sacrificed with carbon dioxide immediately after in vivo imaging. The tumors were excised, and frozen or paraffin-embedded for histological study and fluorescence microscopy study after ex vivo imaging. […]
compound,measurement,setting,value
"Oc1cccc(-c2c3nc(c(-c4cccc(O)c4)c4ccc([nH]4)c(-c4cccc(O)c4)c4nc(c(-c5cccc(O)c5)c5ccc2[nH]5)CC4)C=C3)c1 [Foscan®, meta-tetrahydroxyphenylchlorin]",extinction coefficient,[1],22000 M⁻¹ cm⁻¹
"C=Cc1c(C)c2cc3nc(c(CC(=O)N[C@@H](CC(=O)[O-])C(=O)[O-])c4[nH]c(cc5nc(cc1[nH]2)C(C)=C5CC)c(C)c4C(=O)[O-])[C@@H](CCC(=O)[O-])[C@@H]3C.[Na+].[Na+].[Na+].[Na+] [NPe6/Laserphyrin®, mono-L-aspartylchlorin e6]",extinction coefficient,[1],40000 M⁻¹ cm⁻¹
IRDye® 700DX [IR700],extinction coefficient higher than conventional photosensitizers,[2],more than 5 fold
same,phototoxicity of dye alone,3T3/HER2+ cells,did not incorporate into the cells or induce phototoxcity in cells
same,organ accumulation,[3],without accumulation in any specific organ
same,time to excretion into urine,[3],≤ 1 h
same,extinction coefficient,[1],210000 M⁻¹ cm⁻¹
Pan-IR800: panitumumab conjugated to IRDye 800CW,change of perfusion by PIT with time after treatment,"A431 tumors; Pan-IR800 given 1, 6, and 24 h after PIT",completely stopped within 24 h
same,uptake/signal in control tumors without NIR light,A431 tumors; agent i.v. 1 h after PIT of contralateral tumor,no change on signal intensities
same,accumulation in PIT-treated tumors,A431 tumors; agent i.v. 1 h after Pan-IR700 PIT,facilitated the permeability
same,signal intensities in PIT-treated tumors versus light dose,"A431 tumors; mouse, in vivo",increased with time in a light dose-dependent manner
same,tumor uptake when given 24 h after PIT,"A431 tumors; mouse, in vivo",cannot be taken up by the tumor
same,tumor shown in dynamic images,MDA-MB-468 tumors,only the right sided tumor was clearly shown up within 10 min
Photofrin®,extinction coefficient,[1],1200 M⁻¹ cm⁻¹
